{
  "source": "patent US11305021B2",
  "about": "“Membrane-lytic block copolymers” (UNIVERSITY OF WASHINGTON, priority 2016, dated 2022)",
  "key": {"[1]": {"experiment": "Assembly behavior of VIPER by TEM imaging and DLS analysis", "format": "physicochemical", "from_the_text": "To verify this hypothesized mechanism, the assembly behavior of VIPER at pH 7.4 and pH 5.7 was monitored by both transmission electron microscopy (TEM) imaging and dynamic light scattering (DLS) analysis. VIPER assembles into uniform spherical nanoparticles with diameter around 30 nm at pH 7.4 (FIGS. 2A and C for TEM and DLS, respectively).\nThe morphology of polymers and polyplexes under dried state were imaged on a JEOL 1140 TEM at an acceleration voltage of 100 kV. In order to observe the morphology of polymer assemblies under different pHs, the polymer solutions (1 mg/mL, in distilled water) were diluted with PB to pH 7.4 and 5.7. Then the resulting solutions (10 μL) were deposited on the top of the 400-mesh formvar/copper grids and incubated at room temperature for 30 min. After staining with uranyl acetate, the grids were allowed to air dry overnight. The preparation of polyplexes samples were the same as polymer samples."}, "human red blood cells": {"tested_on": "human red blood cells", "experiment": "Hemolysis assay (acid-triggered membrane-lytic activity)", "format": "cell-based", "experimental": "Hemolysis assay was used to evaluate the acid-triggered membrane-lytic activity of the synthesized materials at pH 7.4 (extracellular pH) and 5.7 (endosomal pH). Briefly, plasma from human blood was removed by centrifugation. The red blood cells were washed three times with 150 mM NaCl, and resuspended into phosphate buffer (PB) at pH 7.4 or 5.7. The polymers at various concentrations ([…]) and 1% Triton X-100 as control, were added to the RBC suspensions in a 96-well conical plate and was allowed to incubate for 1 h at 37° C. After centrifugation, the released hemoglobin within the supernatant was measured by UV at 541 nm. Percent hemolysis was calculated relative to Triton X-100. Experiments were performed in triplicate."}, "[2]": {"tested_on": "HeLa, KB, A549 and Z310 cells", "experiment": "In vitro transfection with luciferase plasmid", "format": "cell-based", "experimental": "HeLa, KB, Z310 and A549 cells were seeded at a density of 25,000 cells/well in complete cell culture medium in a 24-well plate. Cells were firstly incubated at 37° C., 5% CO2 for 24 h. Polyplexes were prepared at different N/P ratios using 0.5 μg of pCMV-Luc2 pDNA in 10 μL total volume. Each sample was diluted to 200 μL with complete cell culture medium. The cells were rinsed once with PBS, followed by the addition of transfection solution. After incubation for 4 h, cells were washed with PBS twice and the polyplexes solution was replaced with complete cell culture medium. After additional 20 h incubation, luciferase activity was quantified with a luciferase assay kit (Promega Corp, Fitchburg, Wis.) according to the manufacturer's instruction, except that a freeze-thaw cycle at −80 OC was included after the addition of the lysis buffer to ensure complete cell lysis. Luminescence intensity was measured on the plate reader with integration for 1 s. The total protein content in each well was measured by a BCA Protein Assay Kit (Thermo Scientific, Rockford, Ill.) according to the manufacturer's instruction so that the luciferase activity was normalized to the total protein content in each well. Each sample was tested with a sample size (n)=3. The N/P ratio used for bPEI is 5, which was previous determined to show optimized transfection efficiency. […]"}, "[3]": {"tested_on": "HeLa, KB, A549 and Z310 cells", "experiment": "GFP transfection", "format": "cell-based", "conditions": "GFP plasmid", "experimental": "The transfection with GFP (green fluorescence plasmid) on different cell lines was the same as that with luciferase plasmid. For analysis, cells were washed with PBS, trypsinized and pelleted at 300×g for 5 min at 4° C. The pellet was resuspended in 0.3 mL propidium iodide (PI) solution (1 μg/mL in 0.5% BSA in PBS), kept on ice and analyzed using flow cytometry, MACSQuant Analyzer (Miltenyi Biotec Inc., Auburn, Calif.). Intact cells were identified using the forward and side scatter data. The resulting cell population was gated into GFP+/PI+, GFP+/PI−, GFP−/PI+ and GFP−/PI− based on the green fluorescence and PI intensity from the control samples (cells transfected without the polymers but DNA only) and reported as the mean percentage of cell population that is GFP+/PI− including standard deviation (SD). All experiments were conducted in triplicate."}},
  "note": "Entries after “also recorded” stand apart in the source; their conditions may differ.",
  "data": [
    {"substance": "P(OEGMA11-DMAEMA56)-b-p(DIPAMA33-PDSEMA-g-melittin)1) [VIPER]", "values": [
      {"measurement": "assemblies observed", "setting": "[1]; pH 5.7", "value": "no assemblies were observed"},
      {"measurement": "diameter of nanoparticles", "setting": "[1]; pH 7.4", "value": "around 30 nm"},
      {"measurement": "concentration for 50% lysis", "setting": "human red blood cells; pH 5.7", "value": 30, "unit": "µg/mL"},
      {"measurement": "concentration for complete lysis", "setting": "human red blood cells; pH 5.7", "value": 120, "unit": "µg/mL"},
      {"measurement": "cell lysis", "setting": "human red blood cells; pH 7.4, VIPER concentrations as high as 240 μg/mL", "value": "no significant cell lysis; also recorded: minimal membrane-lytic activity"},
      {"measurement": "transfection efficiency compared to optimized LF formulations", "setting": "[2]; HeLa, KB and Z310 cells", "value": "improved transfection efficiency"},
      {"measurement": "luciferase activity compared to CP and bPEI", "setting": "[2]; all tested cell lines", "value": "orders of magnitude higher"},
      {"measurement": "fold more transfected cells compared to CP", "setting": "[3]", "value": "13- to 60 fold"},
      {"measurement": "fold more transfected cells compared to bPEI", "setting": "[3]", "value": "11- to 46 fold"},
      {"measurement": "transfection efficiency, GFP+ cells", "setting": "[3]; range over cell lines", "value": "36-77%"}
    ]}
  ]
}
